Laboratory results published in patent US12441743B2, “Spiro aromatic ring compound and use thereof” (Etern Biopharma (Shanghai) Co., Ltd., priority 2018, dated 2025).

Assays:
[1] = system: MV4-11 cells; assay: MV4-11 cell proliferation inhibition experiment (CellTiter-Glo); format: cell-based; settings: Homo sapiens; MV4-11 cells, 72 h, CellTiter-Glo; read-out: Cell proliferation inhibition activity
Description: The number of living cells in the culture was determined by quantitative determination of intracellular ATP using CellTiter-Glo® Luminescent Cell Viability Assay kit.
In the first step, MV4-11 cells were inoculated into 96-well plates with a density of 2500 cells per well and a volume of 100 μL per well. The plates were placed in 37° C., 5% carbon dioxide incubator overnight.
In the second step, cells were treated with compounds. The compounds to be tested were diluted 3 times, and 8 concentration gradients were set up. Each well was added with a certain volume of DMSO or the compound to be tested, and each concentration was tested in 2 replicates, and the final concentration of DMSO was 0.5%. The plates were placed in 37° C., 5% carbon dioxide incubator for 72 h.
In the third step, cell viability of the control groups and the treatment groups was determined using CellTiter-Glo® Luminescent Cell Viability Assay kit (Promega, G7570). Each well was added with 50 uL CellTiter-Glo. The culture was mixed well, and incubated at room temperature for 10 min. Signals were read using EnSpire (Perkin Elmer). Inhibition percentages (%) were calculated by the following formula:
Inhibition percentage (%)=(1−signal value of compound treatment group/signal value of DMSO treatment group)*100.

[2] = biological target: T1, SHP2 E76A protein (Homo sapiens, UniProt Q06124, E76A); assay: SHP2 enzyme activity inhibition test (DiFMUP substrate, fluorescence); format: biochemical; settings: 50 ng SHP2 E76A, 20 min with compound, then 10 uM DiFMUP 20 min at room temperature
T1 sequence (Q06124 1-593 E76A): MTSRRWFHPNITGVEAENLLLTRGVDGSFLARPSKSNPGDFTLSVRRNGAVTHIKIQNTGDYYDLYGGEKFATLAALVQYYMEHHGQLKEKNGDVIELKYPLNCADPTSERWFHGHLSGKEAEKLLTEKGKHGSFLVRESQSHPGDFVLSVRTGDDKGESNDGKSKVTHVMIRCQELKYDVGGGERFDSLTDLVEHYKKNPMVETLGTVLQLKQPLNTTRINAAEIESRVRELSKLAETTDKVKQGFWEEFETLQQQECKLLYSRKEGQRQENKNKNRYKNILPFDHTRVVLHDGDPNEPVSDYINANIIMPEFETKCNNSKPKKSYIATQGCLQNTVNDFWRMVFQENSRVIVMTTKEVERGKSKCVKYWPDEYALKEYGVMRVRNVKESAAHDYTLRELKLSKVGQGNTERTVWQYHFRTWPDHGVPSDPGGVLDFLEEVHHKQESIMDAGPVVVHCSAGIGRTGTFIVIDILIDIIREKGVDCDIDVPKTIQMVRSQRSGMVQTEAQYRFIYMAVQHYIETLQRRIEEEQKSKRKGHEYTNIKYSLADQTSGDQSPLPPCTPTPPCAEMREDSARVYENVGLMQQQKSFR

[3] = Pharmacokinetics experiment, intragastric single dose; format: in vivo; settings: mouse, plasma, male mice, oral administration dosage 5 mg/Kg; for half-life: read-out: Half-life T1/2 (converted); for Cmax: read-out: Maximum plasma concentration Cmax; for AUC: read-out: Plasma exposure AUC
Description: Pharmacokinetics of the compound of the disclosure was determined. The following method was used to determine the pharmacokinetic parameters of the compound of the disclosure. Healthy male adult mice were used in the study. Each group was intragastrically administered with a single dose of 5-100 mg/kg. Fasting lasted from 10 hours before administration to 4 hours after administration. Blood samples were collected at different time points after administration and the compound content in plasma was determined by LC-MS/MS. The relationship between plasma concentration and time was analyzed by professional software (winnonlin), and the pharmacokinetic parameters of the compounds were calculated. According to Table 3, the compounds of the disclosure have excellent pharmacokinetic properties.

| IC50 [1] | IC50 [2] | bioavailability [3] | half-life [3] | Cmax [3] | AUC [3] | Structure (SMILES) |
| --- | --- | --- | --- | --- | --- | --- |
| 7 nM | 3 nM | 51% | 3.8 h | 5 µM | 48 µM·h | Nc1nccc(Sc2cnc(N3CCC4(CC3)Cc3cccnc3[C@H]4N)n3ccnc23)c1Cl [Compound 10, (S)-1′-(8-((2-amino-3-chloropyridin-4-yl)thio)imidazo[1,2-c]pyrimidin-5-yl)-5,7-dihydrospiro[cyclopenta[b]pyridine-6,4′-piperidine]-7-amine] |
| 42 nM | 7 nM | 72% | 3.5 h | 6.5 µM | 40 µM·h | Nc1nccc(Sc2cnc(N3CCC4(CC3)Cc3nccnc3[C@H]4N)n3ccnc23)c1Cl [Compound 18, (S)-1′-(8-((2-amino-3-chloropyridin-4-yl)thio)imidazo[1,2-c]pyrimidin-5-yl)-5,7-dihydrospiro[cyclopenta[b]pyrazine-6,4′-piperidine]-5-amine] |
